Patent US10844077B2, “Thiazolyl-containing compounds for treating proliferative diseases” (Dana-Farber Cancer Institute, Inc., priority 2014, dated 2020)
Read-outs that look alike come from different tables or passages of the source.

Legend:
Format in all cases: binding
broad panel of kinases [1] = biological target: broad panel of kinases (Homo sapiens, UniProt Q8NFD2); settings: ANKK1; 1 μM
broad panel of kinases [2] = biological target: broad panel of kinases (Homo sapiens, UniProt P53350); settings: PLK1; 1 μM
broad panel of kinases [3] = biological target: broad panel of kinases (Homo sapiens, UniProt Q15746); settings: MYLK; 1 μM
broad panel of kinases [4] = biological target: broad panel of kinases (Homo sapiens, UniProt Q16288); settings: TRKC; 1 μM
broad panel of kinases [5] = biological target: broad panel of kinases (Homo sapiens, UniProt Q9BZL6); settings: PRKD2; 1 μM
broad panel of kinases [6] = settings: 1 μM
broad panel of kinases [7] = biological target: broad panel of kinases (Homo sapiens, UniProt Q6DT37); settings: DMPK2; 1 μM
broad panel of kinases [8] = biological target: broad panel of kinases (Homo sapiens, UniProt Q9Y6E0); settings: MST3; 1 μM
broad panel of kinases [9] = biological target: broad panel of kinases (Homo sapiens, UniProt P10721, D816H); settings: KIT(D816H); 1 μM
broad panel of kinases [10] = biological target: broad panel of kinases (Homo sapiens, UniProt Q9UQM7); settings: CAMK2A; 1 μM
broad panel of kinases [11] = biological target: broad panel of kinases (Homo sapiens, UniProt Q8NI60); settings: ADCK3; 1 μM
broad panel of kinases [12] = biological target: broad panel of kinases (Homo sapiens, UniProt Q8NE63); settings: HIPK4; 1 μM
broad panel of kinases [13] = biological target: broad panel of kinases (Homo sapiens, UniProt O14976); settings: GAK; 1 μM
broad panel of kinases [14] = biological target: broad panel of kinases (Homo sapiens, UniProt P24941); settings: CDK2; 1 μM
broad panel of kinases [15] = biological target: broad panel of kinases (Homo sapiens, UniProt Q07912); settings: TNK2; 1 μM
broad panel of kinases [16] = biological target: broad panel of kinases (Homo sapiens, UniProt O75716); settings: STK16; 1 μM
broad panel of kinases [17] = biological target: broad panel of kinases (Homo sapiens, UniProt P50750); settings: CDK9; 1 μM
broad panel of kinases [18] = biological target: broad panel of kinases (Homo sapiens, UniProt P0C1S8); settings: WEE2; 1 μM
broad panel of kinases [19] = biological target: broad panel of kinases (Homo sapiens, UniProt Q9UHD2); settings: TBK1; 1 μM
broad panel of kinases [20] = biological target: broad panel of kinases (Homo sapiens, UniProt P07333); settings: 1 μM
broad panel of kinases [21] = biological target: broad panel of kinases (Homo sapiens, UniProt Q9H2G2); settings: SLK; 1 μM
broad panel of kinases [22] = biological target: broad panel of kinases (Homo sapiens, UniProt P52333); settings: JAK3(JH1domain-catalytic); 1 μM
broad panel of kinases [23] = biological target: broad panel of kinases (Homo sapiens, UniProt Q16513); settings: PKN2; 1 μM
broad panel of kinases [24] = biological target: broad panel of kinases (Homo sapiens, UniProt O75116); settings: ROCK2; 1 μM
broad panel of kinases [25] = biological target: broad panel of kinases (Homo sapiens, UniProt Q13464); settings: ROCK1; 1 μM
broad panel of kinases [26] = biological target: broad panel of kinases (Homo sapiens, UniProt P16234); settings: PDGFRA; 1 μM
broad panel of kinases [27] = biological target: broad panel of kinases (Homo sapiens, UniProt O43283); settings: LZK; 1 μM
broad panel of kinases [28] = biological target: broad panel of kinases (Homo sapiens, UniProt Q04771); settings: ACVR1; 1 μM
broad panel of kinases [29] = biological target: broad panel of kinases (Homo sapiens, UniProt P22607); settings: FGFR3; 1 μM
broad panel of kinases [30] = biological target: broad panel of kinases (Homo sapiens, UniProt P53667); settings: LIMK1; 1 μM
broad panel of kinases [31] = biological target: broad panel of kinases (Homo sapiens, UniProt P35916); settings: FLT4; 1 μM
broad panel of kinases [32] = biological target: broad panel of kinases (Homo sapiens, UniProt Q15139); settings: PRKD1; 1 μM
broad panel of kinases [33] = biological target: broad panel of kinases (Homo sapiens, UniProt Q2M2I8); settings: AAK1; 1 μM
broad panel of kinases [34] = biological target: broad panel of kinases (Homo sapiens, UniProt P07949, V804L); settings: RET(V804L); 1 μM
broad panel of kinases [35] = biological target: broad panel of kinases (Homo sapiens, UniProt P31152); settings: ERK4; 1 μM
broad panel of kinases [36] = biological target: broad panel of kinases (Mycobacterium tuberculosis, UniProt P9WI81)
broad panel of kinases [37] = biological target: broad panel of kinases (Homo sapiens, UniProt P36888, D835H); settings: FLT3(D835H); 1 μM

Chain of broad panel of kinases (Homo sapiens, UniProt P07333) (P07333 20-972 limits assumed): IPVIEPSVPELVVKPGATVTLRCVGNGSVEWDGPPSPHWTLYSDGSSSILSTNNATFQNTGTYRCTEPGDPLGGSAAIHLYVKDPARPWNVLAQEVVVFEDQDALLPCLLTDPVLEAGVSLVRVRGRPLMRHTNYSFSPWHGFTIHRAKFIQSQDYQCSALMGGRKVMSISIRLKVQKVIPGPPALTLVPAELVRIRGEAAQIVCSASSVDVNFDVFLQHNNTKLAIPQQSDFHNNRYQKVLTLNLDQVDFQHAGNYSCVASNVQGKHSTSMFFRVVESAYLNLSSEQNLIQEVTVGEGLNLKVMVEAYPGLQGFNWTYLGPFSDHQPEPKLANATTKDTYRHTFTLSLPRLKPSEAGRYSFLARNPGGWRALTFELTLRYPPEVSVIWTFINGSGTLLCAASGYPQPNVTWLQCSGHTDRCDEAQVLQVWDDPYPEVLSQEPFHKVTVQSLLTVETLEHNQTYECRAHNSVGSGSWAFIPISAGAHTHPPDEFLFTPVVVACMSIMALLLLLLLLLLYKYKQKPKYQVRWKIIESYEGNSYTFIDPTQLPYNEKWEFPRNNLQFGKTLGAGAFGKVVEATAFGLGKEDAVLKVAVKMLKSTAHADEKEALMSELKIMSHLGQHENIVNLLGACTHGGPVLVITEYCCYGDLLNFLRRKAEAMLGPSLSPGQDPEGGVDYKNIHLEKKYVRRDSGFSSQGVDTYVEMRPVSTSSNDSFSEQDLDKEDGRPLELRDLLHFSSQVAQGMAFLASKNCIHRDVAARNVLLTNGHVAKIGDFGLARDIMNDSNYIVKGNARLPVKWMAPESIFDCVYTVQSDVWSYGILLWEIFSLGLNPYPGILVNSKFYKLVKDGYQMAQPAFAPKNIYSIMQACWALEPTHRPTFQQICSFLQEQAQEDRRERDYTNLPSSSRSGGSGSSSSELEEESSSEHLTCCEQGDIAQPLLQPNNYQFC
Chain of broad panel of kinases (Homo sapiens, UniProt Q04771) (Q04771 21-509 limits assumed): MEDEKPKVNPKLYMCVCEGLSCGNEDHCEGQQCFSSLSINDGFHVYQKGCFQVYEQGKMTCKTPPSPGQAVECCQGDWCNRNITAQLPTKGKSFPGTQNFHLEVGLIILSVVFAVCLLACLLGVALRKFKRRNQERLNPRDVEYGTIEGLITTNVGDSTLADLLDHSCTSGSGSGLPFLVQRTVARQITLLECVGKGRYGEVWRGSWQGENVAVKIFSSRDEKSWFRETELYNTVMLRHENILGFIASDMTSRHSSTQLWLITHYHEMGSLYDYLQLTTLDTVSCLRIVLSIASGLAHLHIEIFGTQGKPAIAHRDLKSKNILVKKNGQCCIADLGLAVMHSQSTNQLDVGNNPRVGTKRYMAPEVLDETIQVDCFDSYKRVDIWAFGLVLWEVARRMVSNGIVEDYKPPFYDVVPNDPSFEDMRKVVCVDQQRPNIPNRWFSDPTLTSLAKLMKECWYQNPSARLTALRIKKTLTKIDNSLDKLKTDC
Chain of broad panel of kinases (Homo sapiens, UniProt Q13464) (Q13464 2-1354 limits assumed): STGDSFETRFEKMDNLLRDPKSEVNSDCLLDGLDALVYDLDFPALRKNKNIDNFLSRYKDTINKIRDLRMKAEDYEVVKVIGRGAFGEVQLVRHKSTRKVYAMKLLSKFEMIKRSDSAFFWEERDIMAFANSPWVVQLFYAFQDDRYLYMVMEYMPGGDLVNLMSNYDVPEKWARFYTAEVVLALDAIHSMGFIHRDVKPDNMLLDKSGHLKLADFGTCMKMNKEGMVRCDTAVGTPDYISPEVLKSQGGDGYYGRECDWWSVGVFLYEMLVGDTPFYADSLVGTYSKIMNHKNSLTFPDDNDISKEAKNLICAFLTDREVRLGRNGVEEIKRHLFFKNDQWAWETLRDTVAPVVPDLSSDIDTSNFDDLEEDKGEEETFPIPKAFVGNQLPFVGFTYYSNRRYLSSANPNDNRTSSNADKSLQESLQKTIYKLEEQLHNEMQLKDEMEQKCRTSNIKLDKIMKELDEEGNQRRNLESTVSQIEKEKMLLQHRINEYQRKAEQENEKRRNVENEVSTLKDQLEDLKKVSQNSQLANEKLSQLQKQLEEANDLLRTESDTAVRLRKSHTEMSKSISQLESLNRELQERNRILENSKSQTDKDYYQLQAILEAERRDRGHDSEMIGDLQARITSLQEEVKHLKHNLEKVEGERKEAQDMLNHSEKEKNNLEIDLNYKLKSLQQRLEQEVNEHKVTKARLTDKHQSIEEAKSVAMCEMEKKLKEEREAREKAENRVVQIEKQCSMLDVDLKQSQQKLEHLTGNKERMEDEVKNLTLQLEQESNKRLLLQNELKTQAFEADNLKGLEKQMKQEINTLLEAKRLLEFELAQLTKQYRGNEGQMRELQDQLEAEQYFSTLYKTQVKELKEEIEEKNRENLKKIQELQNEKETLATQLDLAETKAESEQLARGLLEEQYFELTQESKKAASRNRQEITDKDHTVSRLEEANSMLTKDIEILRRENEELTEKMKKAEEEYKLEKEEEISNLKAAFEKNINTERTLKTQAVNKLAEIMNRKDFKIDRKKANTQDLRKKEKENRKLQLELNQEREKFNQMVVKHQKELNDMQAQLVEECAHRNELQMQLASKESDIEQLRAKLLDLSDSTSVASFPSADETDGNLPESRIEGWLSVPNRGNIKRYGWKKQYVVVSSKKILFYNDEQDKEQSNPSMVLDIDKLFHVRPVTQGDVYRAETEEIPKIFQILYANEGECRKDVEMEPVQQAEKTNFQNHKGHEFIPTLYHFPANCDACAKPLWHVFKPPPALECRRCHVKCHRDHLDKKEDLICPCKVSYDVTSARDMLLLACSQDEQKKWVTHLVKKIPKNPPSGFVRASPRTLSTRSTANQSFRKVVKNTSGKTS
Chain of broad panel of kinases (Mycobacterium tuberculosis, UniProt P9WI81) (P9WI81 2-626 limits assumed): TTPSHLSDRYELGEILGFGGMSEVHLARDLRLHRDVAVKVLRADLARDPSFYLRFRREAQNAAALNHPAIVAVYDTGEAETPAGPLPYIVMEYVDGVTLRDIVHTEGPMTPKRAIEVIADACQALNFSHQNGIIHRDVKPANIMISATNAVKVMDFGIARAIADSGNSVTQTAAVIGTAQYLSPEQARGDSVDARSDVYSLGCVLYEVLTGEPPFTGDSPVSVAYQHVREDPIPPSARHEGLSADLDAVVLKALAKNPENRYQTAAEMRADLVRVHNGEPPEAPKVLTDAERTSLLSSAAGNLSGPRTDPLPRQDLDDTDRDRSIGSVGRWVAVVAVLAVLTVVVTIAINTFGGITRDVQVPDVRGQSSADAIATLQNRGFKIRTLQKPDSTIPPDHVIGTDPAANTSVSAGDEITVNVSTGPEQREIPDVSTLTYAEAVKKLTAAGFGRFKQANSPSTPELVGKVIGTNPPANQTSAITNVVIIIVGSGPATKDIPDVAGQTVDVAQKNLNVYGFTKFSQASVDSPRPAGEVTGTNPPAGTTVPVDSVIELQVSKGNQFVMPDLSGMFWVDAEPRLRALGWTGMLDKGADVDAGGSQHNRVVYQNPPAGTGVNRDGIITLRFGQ
Chain of broad panel of kinases (Homo sapiens, UniProt Q8NI60) (Q8NI60 163-647 limits assumed): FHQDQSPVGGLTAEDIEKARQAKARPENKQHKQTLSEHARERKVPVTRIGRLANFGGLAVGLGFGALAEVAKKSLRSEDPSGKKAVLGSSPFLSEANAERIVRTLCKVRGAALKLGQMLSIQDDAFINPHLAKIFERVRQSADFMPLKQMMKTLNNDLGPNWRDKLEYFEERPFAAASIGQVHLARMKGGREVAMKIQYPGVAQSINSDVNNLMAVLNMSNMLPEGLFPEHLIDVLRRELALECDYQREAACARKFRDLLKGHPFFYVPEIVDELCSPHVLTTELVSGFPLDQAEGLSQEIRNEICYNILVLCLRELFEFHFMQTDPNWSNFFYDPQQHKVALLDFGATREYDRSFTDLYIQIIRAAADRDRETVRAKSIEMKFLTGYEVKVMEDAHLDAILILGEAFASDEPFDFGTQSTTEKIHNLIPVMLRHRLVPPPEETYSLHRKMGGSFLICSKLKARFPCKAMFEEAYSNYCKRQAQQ
Chain of broad panel of kinases (Homo sapiens, UniProt P22607) (P22607 23-806 limits assumed): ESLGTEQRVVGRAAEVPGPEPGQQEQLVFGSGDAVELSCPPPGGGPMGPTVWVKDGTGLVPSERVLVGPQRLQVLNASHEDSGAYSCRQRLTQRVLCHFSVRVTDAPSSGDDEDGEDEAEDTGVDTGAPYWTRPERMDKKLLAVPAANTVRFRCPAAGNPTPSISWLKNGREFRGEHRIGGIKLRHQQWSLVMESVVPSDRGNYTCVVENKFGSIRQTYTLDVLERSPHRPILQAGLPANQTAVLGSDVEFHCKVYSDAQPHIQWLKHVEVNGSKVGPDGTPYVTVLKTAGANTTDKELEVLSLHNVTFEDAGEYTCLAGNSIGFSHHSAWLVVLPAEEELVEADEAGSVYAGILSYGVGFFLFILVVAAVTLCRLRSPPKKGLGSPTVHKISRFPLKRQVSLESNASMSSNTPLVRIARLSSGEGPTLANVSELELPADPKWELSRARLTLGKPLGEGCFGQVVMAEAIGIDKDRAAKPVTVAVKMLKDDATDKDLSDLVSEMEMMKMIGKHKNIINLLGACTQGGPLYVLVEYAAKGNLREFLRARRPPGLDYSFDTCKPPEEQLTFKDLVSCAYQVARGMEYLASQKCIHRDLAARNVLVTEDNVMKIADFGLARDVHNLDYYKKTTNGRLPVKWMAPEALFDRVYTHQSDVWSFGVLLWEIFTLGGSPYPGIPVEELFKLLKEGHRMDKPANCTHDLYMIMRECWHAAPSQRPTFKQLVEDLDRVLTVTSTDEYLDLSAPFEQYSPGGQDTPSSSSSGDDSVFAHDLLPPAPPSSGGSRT
Chain of broad panel of kinases (Homo sapiens, UniProt O75716) (O75716 2-305 limits assumed): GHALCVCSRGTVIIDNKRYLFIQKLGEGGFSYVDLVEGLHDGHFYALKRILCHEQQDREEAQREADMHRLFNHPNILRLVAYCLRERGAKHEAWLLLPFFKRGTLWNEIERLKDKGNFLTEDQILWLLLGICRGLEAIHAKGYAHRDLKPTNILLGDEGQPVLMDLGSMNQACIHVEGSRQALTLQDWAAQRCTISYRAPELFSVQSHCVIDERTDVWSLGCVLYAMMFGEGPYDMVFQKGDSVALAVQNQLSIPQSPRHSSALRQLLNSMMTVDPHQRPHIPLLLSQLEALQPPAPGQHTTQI

C=CC(=O)N1CC[C@H](Nc2nc(CN3CCOCC3)cc(Nc3ncc(C(=O)Nc4c(C)cccc4C)s3)n2)C1 [Example I-2] was tested, and the “percent of control binding remaining (lower = stronger binding)” value (broad panel of kinases [1]) was 94%, the “percent of control binding remaining (lower = stronger binding)” value (broad panel of kinases [2]) was 92% and the “percent of control binding remaining (lower = stronger binding)” value (broad panel of kinases [3]) was 85%. The “percent of control binding remaining (lower = stronger binding)” value (broad panel of kinases [4]) was 99%, the “percent of control binding remaining (lower = stronger binding)” value (broad panel of kinases [5]) was 100% and the “percent of control binding remaining (lower = stronger binding)” value (broad panel of kinases [6]; EGFR(L747-E749del, A750P)) was 2.2%. For the same compound, the “percent of control binding remaining (lower = stronger binding)” value (broad panel of kinases [6]; EGFR(L747-S752del, P753S)) was 3.6%, the “percent of control binding remaining (lower = stronger binding)” value (broad panel of kinases [6]; EGFR(L747-T751del, Sins)) was 2% and the “percent of control binding remaining (lower = stronger binding)” value (broad panel of kinases [6]; FLT3(ITD)) was 92%. The “percent of control binding remaining (lower = stronger binding)” value (broad panel of kinases [7]) was 51%, the “percent of control binding remaining (lower = stronger binding)” value (broad panel of kinases [8]) was 100% and the “percent of control binding remaining (lower = stronger binding)” value (broad panel of kinases [9]) was 14%. For the same compound, the “percent of control binding remaining (lower = stronger binding)” value (broad panel of kinases [10]) was 86%, the “percent of control binding remaining (lower = stronger binding)” value (broad panel of kinases [11]) was 9.2% and the “percent of control binding remaining (lower = stronger binding)” value (broad panel of kinases [12]) was 100%. The “percent of control binding remaining (lower = stronger binding)” value (broad panel of kinases [13]) was 11%, the “percent of control binding remaining (lower = stronger binding)” value (broad panel of kinases [14]) was 100% and the “percent of control binding remaining (lower = stronger binding)” value (broad panel of kinases [15]) was 31%. The “percent of control binding remaining (lower = stronger binding)” value (broad panel of kinases [16]) was 99%, the “percent of control binding remaining (lower = stronger binding)” value (broad panel of kinases [17]) was 90% and the “percent of control binding remaining (lower = stronger binding)” value (broad panel of kinases [18]) was 100%. For the same compound, the “percent of control binding remaining (lower = stronger binding)” value (broad panel of kinases [19]) was 89%, the “percent of control binding remaining (lower = stronger binding)” value (broad panel of kinases [20]; CSF1R-autoinhibited) was 1.4% and the “percent of control binding remaining (lower = stronger binding)” value (broad panel of kinases [20]; CSF1R) was 2.6%. For the same compound, the “percent of control binding remaining (lower = stronger binding)” value (broad panel of kinases [21]) was 96%, the “percent of control binding remaining (lower = stronger binding)” value (broad panel of kinases [22]) was 0% and the “percent of control binding remaining (lower = stronger binding)” value (broad panel of kinases [23]) was 84%. The “percent of control binding remaining (lower = stronger binding)” value (broad panel of kinases [24]) was 95%, the “percent of control binding remaining (lower = stronger binding)” value (broad panel of kinases [25]) was 88% and the “percent of control binding remaining (lower = stronger binding)” value (broad panel of kinases [26]) was 4.5%. For the same compound, the “percent of control binding remaining (lower = stronger binding)” value (broad panel of kinases [27]) was 97%, the “percent of control binding remaining (lower = stronger binding)” value (broad panel of kinases [28]) was 74% and the “percent of control binding remaining (lower = stronger binding)” value (broad panel of kinases [29]) was 99%. For the same compound, the “percent of control binding remaining (lower = stronger binding)” value (broad panel of kinases [30]) was 52%, the “percent of control binding remaining (lower = stronger binding)” value (broad panel of kinases [31]) was 95% and the “percent of control binding remaining (lower = stronger binding)” value (broad panel of kinases [32]) was 93%. The “percent of control binding remaining (lower = stronger binding)” value (broad panel of kinases [33]) was 97%, the “percent of control binding remaining (lower = stronger binding)” value (broad panel of kinases [34]) was 98% and the “percent of control binding remaining (lower = stronger binding)” value (broad panel of kinases [35]) was 90%. The “% change compared to control” value (broad panel of kinases [36]) was 73% and the “percent of control binding remaining (lower = stronger binding)” value (broad panel of kinases [37]) was 100%.

In the case of C=CC(=O)N1CC[C@H](Nc2nccc(Nc3ncc(C(=O)Nc4c(C)cccc4C)s3)n2)C1 [Example I-3], the “percent of control binding remaining (lower = stronger binding)” value (broad panel of kinases [1]) was 100%, the “percent of control binding remaining (lower = stronger binding)” value (broad panel of kinases [2]) was 83% and the “percent of control binding remaining (lower = stronger binding)” value (broad panel of kinases [3]) was 93%. The “percent of control binding remaining (lower = stronger binding)” value (broad panel of kinases [4]) was 96%, the “percent of control binding remaining (lower = stronger binding)” value (broad panel of kinases [5]) was 100% and the “percent of control binding remaining (lower = stronger binding)” value (broad panel of kinases [6]; EGFR(L747-E749del, A750P)) was 1.4%. The “percent of control binding remaining (lower = stronger binding)” value (broad panel of kinases [6]; EGFR(L747-S752del, P753S)) was 3.6%, the “percent of control binding remaining (lower = stronger binding)” value (broad panel of kinases [6]; EGFR(L747-T751del, Sins)) was 4.2% and the “percent of control binding remaining (lower = stronger binding)” value (broad panel of kinases [6]; FLT3(ITD)) was 98%. For the same compound, the “percent of control binding remaining (lower = stronger binding)” value (broad panel of kinases [7]) was 66%, the “percent of control binding remaining (lower = stronger binding)” value (broad panel of kinases [8]) was 100% and the “percent of control binding remaining (lower = stronger binding)” value (broad panel of kinases [9]) was 23%. The “percent of control binding remaining (lower = stronger binding)” value (broad panel of kinases [10]) was 83%, the “percent of control binding remaining (lower = stronger binding)” value (broad panel of kinases [11]) was 49% and the “percent of control binding remaining (lower = stronger binding)” value (broad panel of kinases [12]) was 97%. The “percent of control binding remaining (lower = stronger binding)” value (broad panel of kinases [13]) was 11%, the “percent of control binding remaining (lower = stronger binding)” value (broad panel of kinases [14]) was 100% and the “percent of control binding remaining (lower = stronger binding)” value (broad panel of kinases [15]) was 43%. For the same compound, the “percent of control binding remaining (lower = stronger binding)” value (broad panel of kinases [16]) was 89%, the “percent of control binding remaining (lower = stronger binding)” value (broad panel of kinases [17]) was 75% and the “percent of control binding remaining (lower = stronger binding)” value (broad panel of kinases [18]) was 97%. The “percent of control binding remaining (lower = stronger binding)” value (broad panel of kinases [19]) was 94%, the “percent of control binding remaining (lower = stronger binding)” value (broad panel of kinases [20]; CSF1R-autoinhibited) was 3.2% and the “percent of control binding remaining (lower = stronger binding)” value (broad panel of kinases [20]; CSF1R) was 3.3%. For the same compound, the “percent of control binding remaining (lower = stronger binding)” value (broad panel of kinases [21]) was 94%, the “percent of control binding remaining (lower = stronger binding)” value (broad panel of kinases [22]) was 0% and the “percent of control binding remaining (lower = stronger binding)” value (broad panel of kinases [23]) was 100%. The “percent of control binding remaining (lower = stronger binding)” value (broad panel of kinases [24]) was 75%, the “percent of control binding remaining (lower = stronger binding)” value (broad panel of kinases [25]) was 89% and the “percent of control binding remaining (lower = stronger binding)” value (broad panel of kinases [26]) was 6.5%. For the same compound, the “percent of control binding remaining (lower = stronger binding)” value (broad panel of kinases [27]) was 88%, the “percent of control binding remaining (lower = stronger binding)” value (broad panel of kinases [28]) was 100% and the “% change compared to control” value (broad panel of kinases [29]) was 100%. For the same compound, the “percent of control binding remaining (lower = stronger binding)” value (broad panel of kinases [30]) was 25%, the “percent of control binding remaining (lower = stronger binding)” value (broad panel of kinases [31]) was 100% and the “percent of control binding remaining (lower = stronger binding)” value (broad panel of kinases [32]) was 94%. The “percent of control binding remaining (lower = stronger binding)” value (broad panel of kinases [33]) was 100%, the “percent of control binding remaining (lower = stronger binding)” value (broad panel of kinases [34]) was 100% and the “percent of control binding remaining (lower = stronger binding)” value (broad panel of kinases [35]) was 62%. For the same compound, the “% change compared to control” value (broad panel of kinases [36]) was 91% and the “percent of control binding remaining (lower = stronger binding)” value (broad panel of kinases [37]) was 100%.
